Measurements from publication PMC7436059, “Synthesis, Characterization, Photoluminescence, Molecular Docking and Bioactivity of Zinc (II) Compounds Based on Different Substituents” (Molecules, 2020).

Legend:
[1] = system: human esophageal cancer cell line (Eca-109); assay: CCK-8 antiproliferative assay, Eca-109; assay type: cell-based; details: Eca-109, CCK-8, 72 h incubation
Description: (§1) The in vitro antiproliferative properties of complexes 1–6 against Eca-109, A549 and Bel-7402 tumor lines were examined by employing the CCK-8 assay with cisplatin as a positive control. […] It is interesting that the different cells respond distinctively to these complexes. The complexes display remarkable cytotoxicity against Eca-109 in comparison to A549 and Bel-7402. […] Compared with that of zinc chloride complexes, the antiproliferative activity of these complexes is stronger. This activity of the bromide complexes follows the order of 1 > 3 > 5 and that of the iodide complexes is 2 > 4 > 6. […] It is worth mentioning that, among these compounds, the order of the activity is consistent with the electronegativity values (methylsulfonyl (−2.96) < methoxy (−2.86) < methyl (−2.28) of the substituents.
(§2) In this assay, human esophageal cancer cell line (Eca-109), human lung cancer cell line (A549), human hepatocellular carcinoma cell line (Bel-7402) and mouse monocyte macrophage (RAW264.7) were used to evaluate the antiproliferative activities or cytotoxicity in vitro by CCK-8 assay for determining cell viability with cisplatin as the positive control. All the cells are purchased from the American Type Culture Collection (Manassas, VA, USA). The cells were cultured in 100 µL complete DMEM growth media containing 10% FBS and 1% PS. First, 3000 cells were added to 96-well plates and were cultured overnight in a humidified atmosphere at 37 °C with 5% CO2. Then, complexes 1–6 and cisplatin were diluted with complete DMEM growth media to obtain the working concentration, which was added to the tissue culture plate and incubated for 72 h. The CCK-8 solution was added to each well. After 3 h incubation, the absorbance of each well at 490 nm was measured using an enzyme labeling instrument (Tecan, Grödig, Salzburg, Austrla). Cell morphology was measured and imaged by an inverted microscope (Nikon eclipses TS100, Tokyo, Japan) and a Nikon digital camera (Tokyo, Japan). The 50% inhibitive concentration (IC50) was calculated by Graph Pad Prism 5.0 (San Diego, CA, USA).

[2] = system: human hepatocellular carcinoma cell line (Bel-7402); assay: CCK-8 antiproliferative assay, Bel-7402; assay type: cell-based; details: Bel-7042, CCK-8, 72 h incubation
Description: as §1, §2

[3] = biological target: T1, BSA (Bos taurus, UniProt P02769); assay: BSA fluorescence quenching titration (Stern-Volmer, Scatchard); assay type: binding, bovine; details: 1.6 μM BSA, Tris-HCl buffer; for Ksv (Stern-Volmer quenching constant): excitation 280 nm; for n (binding site number): Scatchard equation; for Kq (quenching rate constant): τ0 = 10^−8 s
T1 construct: purchased Asbio
T1 sequence (P02769 25-607): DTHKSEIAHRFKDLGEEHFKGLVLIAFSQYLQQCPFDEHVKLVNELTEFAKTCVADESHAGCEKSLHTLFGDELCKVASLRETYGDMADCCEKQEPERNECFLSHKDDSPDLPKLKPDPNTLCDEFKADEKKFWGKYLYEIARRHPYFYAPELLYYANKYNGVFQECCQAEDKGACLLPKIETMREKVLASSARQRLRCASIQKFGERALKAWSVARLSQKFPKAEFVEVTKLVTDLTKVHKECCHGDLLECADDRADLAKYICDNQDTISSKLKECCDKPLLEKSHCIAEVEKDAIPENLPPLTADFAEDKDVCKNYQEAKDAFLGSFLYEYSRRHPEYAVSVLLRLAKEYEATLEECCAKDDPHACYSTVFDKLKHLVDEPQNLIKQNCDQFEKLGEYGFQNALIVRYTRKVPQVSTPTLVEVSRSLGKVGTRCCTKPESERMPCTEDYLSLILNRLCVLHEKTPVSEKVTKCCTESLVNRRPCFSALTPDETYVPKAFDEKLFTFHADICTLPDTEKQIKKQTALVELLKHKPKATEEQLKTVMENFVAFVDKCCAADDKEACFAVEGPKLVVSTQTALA
Description: The structure and transmission characteristics of BSA are similar to HSA [36]. BSA was used instead of HSA for drug delivery due to its ease to purify and stability. The binding of metal complexes to proteins was studied by fluorescence spectrum titration. Endogenous fluorescence of BSA comes from residues as tryptophan (Trp), tyrosine (Tyr) and phenylalanine (Phe), and conformational changes of BSA-binding metal complexes are obtained by observing the fluorescence of Trp residues at 350 nm. […] The same phenomenon occurs for the other compounds (shown in Figure S22, Supplementary Materials). […] This appearance may be due to a resonant energy transfer. […] The Stern–Volmer equation [37] (Equation (1)) was used to study the quenching mechanism of BSA and the complexes:I0/I = 1 + Kqτ0[Q] = 1 + Ksv[Q](1) where the fluorescence intensity of the protein is expressed by I0 and I in absence and in presence of quencher, respectively; Ksv is the Stern–Volmer quenching rate constant; Kq is the quenching rate constant; and τ0 and [Q] represent the lifetime of fluorescent molecule in absence of quencher (valued 10^−8 s) and quencher concentration, respectively. The maximum causing a value of dynamic quenching in biopolymers is 2 × 10^10 M^−1 S^−1 [23].
Calculation of the binding constants (Kb) was achieved according to the Scatchard equation [38] (Equation (2)):log [(I0 − I)/I] = logKb + nlog[Q](2) where Kb and n represent the binding constant and the binding site number, respectively. The binding constants Kb and the binding site number were obtained from the intercept and slope of the double logarithm regression plot between log [(I0 − I)/I] and log [Q]. The binding constant (>104 L mol^−1) was obtained under the condition of high binding affinity. […] It can be seen in Figure 7 that the absorption spectra of the complexes partially overlap with the […] spectrum of BSA.
Bovine serum albumin (BSA) was dissolved in a Tris-HCl buffer (pH = 7.4) solution to prepare a 1.6 × 10^−6 M BSA solution. The protein concentration was measured by spectrophotometry at 280 nm with the extinction coefficient of 44,300 M^−1 cm^−1. Stock solutions of complexes 1–6 (1 × 10^−2 M) were prepared in DMSO. The emission spectrum (300–600 nm) of BSA was monitored at the excitation wavelength of 280 nm.

[4] = system: human lung cancer cell line (A549); assay: CCK-8 antiproliferative assay, A549; assay type: cell-based; details: A549, CCK-8, 72 h incubation
Description: as §1, §2

| SMILES | IC50 [1] | IC50 [2] | Ksv (Stern-Volmer quenching constant) [3] | n (binding site number) [3] | Kq (quenching rate constant) [3] | IC50 [4] |
| --- | --- | --- | --- | --- | --- | --- |
| CS(=O)(=O)c1ccc(-c2cc(-c3ccccn3)nc(-c3ccccn3)c2)cc1.[Br][Zn][Br] [Compound 1, [ZnBr2L^1]] | 79 nM | 358 nM | 176000 M⁻¹ | 0.72 | 1.76e+13 M⁻¹ s⁻¹ |  |
| CS(=O)(=O)c1ccc(-c2cc(-c3ccccn3)nc(-c3ccccn3)c2)cc1.[I][Zn][I] [Compound 2, [ZnI2L^1]] | 66 nM | 331 nM | 176000 M⁻¹ | 0.83 | 1.76e+13 M⁻¹ s⁻¹ | 290 nM |
| COc1ccc(-c2cc(-c3ccccn3)nc(-c3ccccn3)c2)cc1.[Br][Zn][Br] [Compound 3, [ZnBr2L^2]] | 169 nM | 414 nM | 115000 M⁻¹ | 1.07 | 1.15e+13 M⁻¹ s⁻¹ | 482 nM |
| COc1ccc(-c2cc(-c3ccccn3)nc(-c3ccccn3)c2)cc1.[I][Zn][I] [Compound 4, [ZnI2L^2]] | 75 nM | 397 nM | 163000 M⁻¹ | 1.08 | 1.63e+13 M⁻¹ s⁻¹ | 307 nM |
| Cc1ccc(-c2cc(-c3ccccn3)nc(-c3ccccn3)c2)cc1.[Br][Zn][Br] [Compound 5, [ZnBr2L^3]] | 197 nM | 616 nM | 46300 M⁻¹ | 0.87 | 4.63e+12 M⁻¹ s⁻¹ | 748 nM |
| Cc1ccc(-c2cc(-c3ccccn3)nc(-c3ccccn3)c2)cc1.[I][Zn][I] [Compound 6, [ZnI2L^3]] | 146 nM |  | 76700 M⁻¹ | 0.89 | 7.67e+12 M⁻¹ s⁻¹ | 945 nM |
| N.N.[Cl][Pt][Cl] [cisplatin, reference compound] | 5460 nM | 3090 nM |  |  |  | 12000 nM |
